Measurements published in US10732172B1, “Methods, systems, and compositions for determining blood clot formation, and uses thereof” (President and Fellows of Harvard College, priority 2015, dated 2020).
“Also recorded” adds a separate entry of the source.

What was measured:
[1] = tested on: HUVECs and platelets; assay: Platelet adhesion and dynamics on TNF-α stimulated endothelium (living or fixed), whole blood perfusion; format: cell-based, human; details: TNF-α 5 ng/ml before fixation; kept 1 day or 5 days; versus no TNF-α
[2] = tested on: HUVECs; assay: Immunostaining of TNF-α stimulated endothelium in microchannel; format: cell-based, human
Procedure: The microfluidic devices are left overnight at 37° C. in a 5% carbon dioxide (“CO2”) incubator, after which they are rinsed with Endothelial Growth Medium-2 (“EGM-2”) from Lonza. Human Umbilical Vein Endothelial Cells (“HUVEC”) from a mixed donor, by Lonza, are kept in culture and suspended at 12.5 million cells/milliliter (“mL”) in EGM-2, after confluence. The suspension is introduced into the collagen-coated microchannels, after which the microfluidic devices are incubated upside down for 20 minutes. A fresh HUVEC suspension is then introduced in the microchannels, after which the microfluidic devices are incubated for eight hours to promote cell attachment across the channel. The microchannels are, then, rinsed with EGM-2, sometimes containing a freshly prepared solution of tumor necrosis factor (“TNF-α”), which is a recombinant from E. coli from Sigma. Antibodies against intercellular adhesion molecule-1 (“ICAM-1”) and vascular adhesion molecule-1 (“VCAM-1”), tissue factor (from Santa Cruz), VWF (from Abcam) and VE-Cadherin (from Santa Cruz) were perfused into the microfluidic devices after fixing the endothelium with 2% paraformaldehyde for ten minutes, incubating the endothelium for three hours, and counterstaining with a secondary fluorescent IgG antibody for three hours.
Multiple endothelial adhesion molecules are involved in the recruitment of blood cells and platelets in thrombosis in vivo. In previous studies, treatment of a living endothelium cultured in microfluidic channels with TNF-α results in an increase in expression of surface adhesion molecules, such as ICAM-1 and VCAM-1 within four hours after addition. To explore whether a fixed endothelium retains expression of these and other surface molecules that could potentially exacerbate thrombosis, the endothelium is first activated in the device by adding increasing doses of TNF-α, e.g., 0, 5, and 100 nanograms/millliter (“ng/ml”), for approximately 18 hours. The endothelium cells are fixed with 4% paraformaldehyde in phosphate-buffered saline (“PBS”) for 15 minutes at room temperature, are rinsed three times with PBS, and, then, stored in PBS at 4° C. in a humid environment.
Human umbilical vein endothelial cells (HUVECs, Lonza) were cultured in Endothelial Growth Medium-2 (EGM-2, Lonza) and used between passages 3 and 7. Before seeding HUVECs in the devices, the microchannels were pre-treated with 1% (3-aminopropyl)-trimethoxysilane in phosphate-buffered saline (PBS) for 10 min, flushed sequentially with 70% ethanol in water and 100% ethanol, and then incubated at 80° C. for two hours before rat tail collagen I (100 μg/ml in PBS; BD Biosciences) was introduced in the channels. Some of the devices were used with the collagen coating alone (without cells) after incubation overnight at 37° C. and flushing of the channels with EGM-2. In other studies for comparison, HUVECs (12.5×10^6 cells/ml) were introduced into the collagen-coated channels and incubated for 20 min at 37° C. to promote cell attachment before a second similar HUVEC suspension was then introduced and the devices were incubated upside down for an additional 20 min to seed the cells on the ceiling and walls of the microfluidic channels. Channels were then flushed with EGM-2 and the devices were incubated at 37° C. under 5% CO2 for 24 hours to promote HUVEC monolayer formation on all exposed surfaces of the microchannel. In some cases, the medium was supplemented with one or more inflammatory cytokines (e.g., 5 or 100 ng/ml TNF-α (Sigma)) to activate the HUVEC monolayer. Fluorescence microscopy was performed on endothelium that was fixed with 4% formaldehyde (Sigma) and stained with antibodies against TF (Santa Cruz), vWF (Abeam), VE-Cadherin (Santa Cruz), followed by counterstaining with phalloidin and DAPI (Invitrogen).

[3] = TNF-α before fixation, versus untreated

tumor necrosis factor-α [TNF-α]
platelet adhesion rate on fixed HUVECs [1]: significantly higher | ICAM-1 expression on living endothelium ([2]; HUVECs stimulated with various doses of TNF-α): increased with increase in TNF concentration; also recorded: dose-dependent activation of ICAM-1; also recorded: dose-dependent surface expression of adhesion molecule ICAM-1; also recorded: increased in a dose-dependent manner | tissue factor (TF) expression on living endothelium ([2]; HUVECs, TNF-α 5 or 100 ng/ml): increase in the endothelial expression | von Willebrand Factor (vWF) expression on living endothelium ([2]; HUVECs, TNF-α 5 or 100 ng/ml): increase in the endothelial expression | VCAM-1 immunofluorescence on fixed endothelium ([2]; TNF-α 0, 5, 100 ng/ml for about 18 hours before fixation): dose-dependent increase | ICAM-1 immunofluorescence on fixed endothelium ([2]; TNF-α 0, 5, 100 ng/ml for about 18 hours before fixation, normalized to untreated): dose-dependent increase | VWF immunofluorescence on fixed endothelium [2, 3]: dose-dependent increase; also recorded: higher levels | tissue factor immunofluorescence on fixed endothelium [2, 3]: dose-dependent increase; also recorded: higher levels
